Structures are written as SMILES.

The target of one test is A. baumannii PBP1a (Acinetobacter baumannii, UniProt A0ABX6CK30). The experiment in a line: Bocillin-FL fluorescence polarization competition binding assay, A. baumannii PBP1a. Conditions: fluorescence polarization competition binding assay using Bocillin-FL; column 1; read-out: A. baumannii PBP1a Potency. From the text: (§1) Example I: Experimental Method for Penicillin-Binding Protein Binding Assays with Bocillin-FL Via Fluorescence Polarization
(§2) To determine the ability of boronic acid-based test PBP inhibitors to bind Penicillin Binding Proteins (PBPs), Bocillin-FL (fluorescently-labeled penicillin V; ThermoFisher Scientific) was used in a fluorescence polarization (FP) competition binding assay to assess inhibitor binding to PBP2, PBP3 or PBP4 from Escherichia coli (K12), PBP3 from Pseudomonas aeruginosa (PA01), PBP1a, PBP2 and PBP3 from Acinetobacter baumannii (ATCC 19606), and PBP2 from Neiserria gonorrheae (FA19). PBPs were cloned and purified as described previously (E. coli PBPs, King, D. T, et al., ACS Infectious Diseases 2015, 1, 175-184; P. aeruginosa PBP3, Han et. al., PNAS 2010, 107 (51), 22002-22007; A. baumannii PBPs, Penwell et. al., Antimicrob. Agents Chemother. 2015, 59 (3), 1680-1689; N. gonorrhoeae PBP2, Singh et. al., J Biol. Chem. 2019, 294 (38), 14020-14032). To establish assay conditions for competition binding, enzyme titration/saturation binding experiments were initially performed. Bocillin-FL was prepared at 0.2 μM in a buffer comprised of 50 mM Hepes (pH 8.0), 300 mM NaCl and 5% (v/v) glycerol for reactions with E. coli, P. aeruginosa and N. gonorrhoeae PBPs, and 25 mM Tris (pH 8.0), 200 mM NaCl and 10% (v/v) glycerol and 0.005% (v/v) Tween 20 for reactions with A. baumannii PBPs. Saturation binding was performed by mixing 40 μl of PBP solutions ranging in concentrations from 0-24 μM with 40 μl of the 0.2 μM Bocillin-FL solution, in individual wells of a black 384-well microplate. FP was measured immediately upon mixing (Excitation, 490 nm; Emission, 520 nm; g-factor, 0.96), using a Cytation3 (BioTek) microplate reader and measured continuously for up to 120 minutes. […] The competition binding assay (80 μl final volume) was validated using beta-lactams and PBPs at final concentrations of: 1.5 μM, E. coli PBP3; 0.75 μM, P. aeruginosa PBP3; 1 μM A. baumannii PBP1a; 2.5 μM A. baumannii PBP2; 0.2 μM A. baumannii PBP3; and […] N. gonorrhoeae PBP2. Bocillin-FL was at 0.1 μM (0.05 μM with A. baumannii PBP1a) and beta-lactam concentrations ranged from 0-1000 μM. […] Bocillin-FL was added and the FP immediately measured for up to 60 minutes (90 minutes for E. coli PBP2). […] The beta-lactam potency was reported as the concentration of beta-lactam required to reduce the amount of PBP bound-Bocillin-FL by 50% (EC50). […] Binding assays for boronic acid PBP inhibitors were performed in an identical fashion for the respective PBPs

The next test has as its target T1, A. baumannii PBP2 (Acinetobacter baumannii, UniProt D0C8Z9).
T1 construct: made in house
T1 sequence (D0C8Z9 1-672): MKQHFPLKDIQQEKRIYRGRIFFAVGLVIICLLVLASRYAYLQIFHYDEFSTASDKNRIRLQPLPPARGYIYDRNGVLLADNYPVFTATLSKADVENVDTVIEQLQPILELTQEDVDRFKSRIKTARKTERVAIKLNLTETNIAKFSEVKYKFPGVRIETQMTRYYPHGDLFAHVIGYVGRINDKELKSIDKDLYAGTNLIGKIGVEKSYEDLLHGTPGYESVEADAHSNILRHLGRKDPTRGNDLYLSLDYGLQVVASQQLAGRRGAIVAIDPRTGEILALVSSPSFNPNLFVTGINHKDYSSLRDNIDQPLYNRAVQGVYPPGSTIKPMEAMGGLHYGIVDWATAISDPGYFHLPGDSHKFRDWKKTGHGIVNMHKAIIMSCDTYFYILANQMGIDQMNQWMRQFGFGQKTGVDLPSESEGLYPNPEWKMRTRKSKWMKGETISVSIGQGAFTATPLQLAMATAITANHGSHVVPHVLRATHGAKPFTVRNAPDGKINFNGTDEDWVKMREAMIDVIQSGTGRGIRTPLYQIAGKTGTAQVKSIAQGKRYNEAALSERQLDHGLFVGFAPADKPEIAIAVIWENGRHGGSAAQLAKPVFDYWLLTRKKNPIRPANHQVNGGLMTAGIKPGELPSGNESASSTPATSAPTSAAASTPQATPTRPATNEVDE
The test is described as follows: Bocillin-FL fluorescence polarization competition binding assay, A. baumannii PBP2. Conditions: fluorescence polarization competition binding assay using Bocillin-FL; read-out: A. baumannii PBP2 Potency.
Excerpt: as §1, §2
On the technique in general: In fluorescence polarisation assays a small probe gives low polarisation when free and higher when bound to something large.

Another test deals with T2, N. gonorrhoeae PBP2 (Neisseria gonorrhoeae, UniProt P08149).
T2 construct: made in house
The test is described as follows: Bocillin-FL fluorescence polarization competition binding assay, N. gonorrhoeae PBP2. Conditions: fluorescence polarization competition binding assay using Bocillin-FL; read-out: N. gonorrhoeae PBP2 Potency.
Excerpt: as §1, §2

T2 sequence (P08149 whole entry): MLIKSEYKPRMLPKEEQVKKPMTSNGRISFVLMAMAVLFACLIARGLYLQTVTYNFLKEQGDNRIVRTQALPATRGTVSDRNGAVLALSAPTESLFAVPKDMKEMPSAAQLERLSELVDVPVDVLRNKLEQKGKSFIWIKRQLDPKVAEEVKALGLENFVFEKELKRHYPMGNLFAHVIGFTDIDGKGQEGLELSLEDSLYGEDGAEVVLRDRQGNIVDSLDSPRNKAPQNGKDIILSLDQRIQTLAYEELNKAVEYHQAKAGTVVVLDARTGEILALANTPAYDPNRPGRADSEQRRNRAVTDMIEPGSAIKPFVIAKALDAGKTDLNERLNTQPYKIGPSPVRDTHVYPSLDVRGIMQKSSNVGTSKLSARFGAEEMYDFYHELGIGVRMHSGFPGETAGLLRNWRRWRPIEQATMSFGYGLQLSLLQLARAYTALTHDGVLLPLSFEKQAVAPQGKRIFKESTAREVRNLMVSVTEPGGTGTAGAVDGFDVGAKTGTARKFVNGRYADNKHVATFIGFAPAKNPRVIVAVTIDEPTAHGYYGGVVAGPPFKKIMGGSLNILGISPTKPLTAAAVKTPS
Sequence of A. baumannii PBP1a (A0ABX6CK30 entry or part of it): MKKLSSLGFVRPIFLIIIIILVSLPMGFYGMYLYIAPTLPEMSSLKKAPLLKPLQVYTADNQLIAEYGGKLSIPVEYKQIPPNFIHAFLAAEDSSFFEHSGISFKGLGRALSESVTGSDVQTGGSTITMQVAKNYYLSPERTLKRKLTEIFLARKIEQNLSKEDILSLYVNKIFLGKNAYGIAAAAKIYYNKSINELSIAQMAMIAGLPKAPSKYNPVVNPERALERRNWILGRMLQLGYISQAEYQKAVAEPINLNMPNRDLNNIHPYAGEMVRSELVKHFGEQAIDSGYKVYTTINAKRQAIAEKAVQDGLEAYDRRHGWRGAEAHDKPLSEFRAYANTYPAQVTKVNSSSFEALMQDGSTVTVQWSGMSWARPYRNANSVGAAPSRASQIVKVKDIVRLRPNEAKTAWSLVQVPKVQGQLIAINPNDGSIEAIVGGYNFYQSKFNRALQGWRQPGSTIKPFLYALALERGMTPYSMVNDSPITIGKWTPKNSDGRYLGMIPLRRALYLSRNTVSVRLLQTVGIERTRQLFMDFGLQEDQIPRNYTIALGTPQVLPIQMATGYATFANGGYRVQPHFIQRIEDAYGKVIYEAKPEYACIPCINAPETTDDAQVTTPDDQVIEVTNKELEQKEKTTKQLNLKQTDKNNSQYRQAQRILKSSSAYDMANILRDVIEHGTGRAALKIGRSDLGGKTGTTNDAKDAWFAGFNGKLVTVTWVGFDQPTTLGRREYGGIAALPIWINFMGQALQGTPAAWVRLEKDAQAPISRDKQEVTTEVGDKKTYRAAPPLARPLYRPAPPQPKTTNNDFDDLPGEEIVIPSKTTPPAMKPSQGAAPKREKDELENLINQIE

On to `NCCN1CCN(C(=O)N[C@@H](C(=O)N[C@H]2Cc3ccc(F)c(C(=O)O)c3OB2O)c2c(F)cc(O)c(O)c2Cl)C(=O)C1=O` (single isomer, unassigned) [Example 26], for which the EC50 on A. baumannii PBP1a and on A. baumannii PBP2 was greater than 100 µM throughout.

As to `NCCCN1CCN(C(=O)N[C@@H](C(=O)N[C@H]2Cc3ccc(F)c(C(=O)O)c3OB2O)c2c(F)cc(O)c(O)c2Cl)C(=O)C1=O` (single isomer, unassigned) [Example 27], the EC50 on A. baumannii PBP1a and on A. baumannii PBP2 was greater than 100 µM throughout.

Consider `O=C(O)c1c(F)ccc2c1OB(O)[C@@H](NC(=O)[C@H](NC(=O)N1CCNC1=O)c1c(F)cc(O)c(O)c1Cl)C2` (single isomer, unassigned) [Example 34], for which the EC50 at A. baumannii PBP1a is greater than 100 µM; at A. baumannii PBP2 it was 30 to 100 µM.

As to `NCCN1CCN(C(=O)N[C@@H](C(=O)N[C@H]2Cc3ccc(F)c(C(=O)O)c3OB2O)c2c(F)cc(O)c(O)c2F)C(=O)C1=O` (single isomer, unassigned) [Example 40], the EC50 was greater than 100 µM on A. baumannii PBP1a and 30 to 100 µM at A. baumannii PBP2.

In the case of `CCN1CCN(C(=O)N[C@@H](C(=O)N[C@H]2Cc3cccc(C(=O)O)c3OB2O)c2cc(O)cc(O)c2)C(=O)C1=O` (single isomer, unassigned) [Example 82], the EC50 on N. gonorrhoeae PBP2 was less than 10 µM.

`NCCN1CCN(C(=O)N[C@H](C(=O)N[C@H]2Cc3cccc(C(=O)O)c3OB2O)c2ccc(C(=O)O)cc2)C(=O)C1=O` (single isomer, unassigned) [Example 83]: the EC50 at N. gonorrhoeae PBP2 was less than 10 µM.

For the compound `NCCN1CCN(C(=O)N[C@@H](C(=O)N[C@H]2Cc3cccc(C(=O)O)c3OB2O)c2ccc(C(=O)O)cc2)C(=O)C1=O` (single isomer, unassigned) [Example 84], on N. gonorrhoeae PBP2, the EC50 was less than 10 µM.

Take `NCCN1CCN(C(=O)N[C@H](C(=O)N[C@H]2Cc3cccc(C(=O)O)c3OB2O)c2ccc(O)cc2Cl)C(=O)C1=O` (single isomer, unassigned) [Example 85]: the EC50 at N. gonorrhoeae PBP2 is 10 to 30 µM.

As to `CCN1CCN(C(=O)N[C@@H](C(=O)N[C@H]2Cc3cccc(C(=O)O)c3OB2O)c2cc(Cl)c(O)cc2Cl)C(=O)C1=O` (single isomer, unassigned) [Example 91], the EC50 on N. gonorrhoeae PBP2 is less than 10 µM.

Consider `CCN1CCN(C(=O)N[C@H](C(=O)N[C@H]2Cc3cccc(C(=O)O)c3OB2O)c2cc(Cl)c(O)cc2Cl)C(=O)C1=O` (single isomer, unassigned) [Example 92], for which the EC50 on N. gonorrhoeae PBP2 is less than 10 µM.

Consider `CS(=O)(=O)N1CCN(C(=O)NC(C(=O)N[C@H]2Cc3ccc(F)c(C(=O)O)c3OB2O)c2ccc(O)c(O)c2Cl)C1=O` (stereo partly drawn) [Example 23, (3R)-3-(2-(2-chloro-3,4-dihydroxyphenyl)-2-(3-(methylsulfonyl)-2-oxoimidazolidine-1-carboxamido)acetamido)-7-fluoro-2-hydroxy-3,4-dihydro-2H-benzo[e][1,2]oxaborinine-8-carboxylic acid], for which the EC50 at A. baumannii PBP1a and at A. baumannii PBP2 was greater than 100 µM throughout.

Regarding `CCN1CCN(C(=O)NC(C(=O)N[C@H]2Cc3cccc(C(=O)O)c3OB2O)c2ccc(C(=O)O)c(F)c2)C(=O)C1=O` (stereo partly drawn) [Example 31, (3R)-3-(2-(4-carboxy-3-fluorophenyl)-2-(4-ethyl-2,3-dioxopiperazine-1-carboxamido)acetamido)-2-hydroxy-3,4-dihydro-2H-benzo[e][1,2]oxaborinine-8-carboxylic acid], the EC50 at N. gonorrhoeae PBP2 was less than 10 µM.

With `CCN1CCN(C(=O)NC(C(=O)N[C@H]2Cc3cccc(C(=O)O)c3OB2O)c2ccc(C(N)=O)c(O)c2)C(=O)C1=O` (stereo partly drawn) [Example 45, (3R)-3-(2-(4-carbamoyl-3-hydroxyphenyl)-2-(4-ethyl-2,3-dioxopiperazine-1-carboxamido)acetamido)-2-hydroxy-3,4-dihydro-2H-benzo[e][1,2]oxaborinine-8-carboxylic acid], the EC50 at N. gonorrhoeae PBP2 was less than 10 µM.

`CCN1CCN(C(=O)NC(C(=O)N[C@H]2Cc3cccc(C(=O)O)c3OB2O)c2cccc(O)c2)C(=O)C1=O` (stereo partly drawn) [Example 68, (3R)-3-(2-(4-ethyl-2,3-dioxopiperazine-1-carboxamido)-2-(3-hydroxyphenyl)acetamido)-2-hydroxy-3,4-dihydro-2H-benzo[e][1,2]oxaborinine-8-carboxylic acid]: at N. gonorrhoeae PBP2, the EC50 is less than 10 µM.

In the case of `CCN1CCN(C(=O)NC(C(=O)N[C@H]2Cc3cccc(C(=O)O)c3OB2O)c2cccc(N)c2)C(=O)C1=O` (stereo partly drawn) [Example 72, (3R)-3-(2-(3-aminophenyl)-2-(4-ethyl-2,3-dioxopiperazine-1-carboxamido)acetamido)-2-hydroxy-3,4-dihydro-2H-benzo[e][1,2]oxaborinine-8-carboxylic acid], the EC50 on N. gonorrhoeae PBP2 is less than 10 µM.

Take `CCN1CCN(C(=O)NC(C(=O)N[C@H]2Cc3cccc(C(=O)O)c3OB2O)c2ccc(O)c(NC(=O)c3ccc(O)c(O)c3Cl)c2)C(=O)C1=O` (stereo partly drawn) [Example 74, (3R)-3-(2-(3-(2-chloro-3,4-dihydroxybenzamido)-4-hydroxyphenyl)-2-(4-ethyl-2,3-dioxopiperazine-1-carboxamido)acetamido)-2-hydroxy-3,4-dihydro-2H-benzo[e][1,2]oxaborinine-8-carboxylic acid]: the EC50 is 30 to 100 µM on A. baumannii PBP1a and greater than 100 µM on A. baumannii PBP2.

On to `NCCN1CCN(C(=O)NC(C(=O)N[C@H]2Cc3cccc(C(=O)O)c3OB2O)c2c(F)cc(O)cc2Cl)C(=O)C1=O` (stereo partly drawn) [Example 94, (3R)-3-(2-(4-(2-aminoethyl)-2,3-dioxopiperazine-1-carboxamido)-2-(2-chloro-6-fluoro-4-hydroxyphenyl)acetamido)-2-hydroxy-3,4-dihydro-2H-benzo[e][1,2]oxaborinine-8-carboxylic acid], for which, at N. gonorrhoeae PBP2, the EC50 was less than 10 µM.

As to `CCN1CCN(C(=O)NC(C(=O)N[C@H]2Cc3cccc(C(=O)O)c3OB2O)c2c(F)cc(O)cc2Cl)C(=O)C1=O` (stereo partly drawn) [Example 95, (3R)-3-(2-(2-chloro-6-fluoro-4-hydroxyphenyl)-2-(4-ethyl-2,3-dioxopiperazine-1-carboxamido)acetamido)-2-hydroxy-3,4-dihydro-2H-benzo[e][1,2]oxaborinine-8-carboxylic acid], the EC50 on N. gonorrhoeae PBP2 is less than 10 µM.

These data come from patent US20230114728A1 (Venatorx Pharmaceuticals, Inc., priority 2019, published 2023).
